Assays:
HEK293T cells = assay: MTT cell viability of HEK293T cells; assay type: cell-based, human; conditions: 20 μM, 24 hours, relative to DMSO negative control
Procedure: In order to confirm the toxicity of noranhydroicaritin to cells, HEK293T (human embryonic kidneys) were treated with noranhydroicaritin at various concentrations, and the cell viability at each concentration of noranhydroicaritin was calculated through the MTT screening method.
Specifically, HEK293T cells were suspended in DMEM (Welgene Inc.) medium containing 10% fetal bovine serum at a concentration of 1×10^5 cells/mL, and 100 μL thereof was inoculated into each well of a 96-well plate. After 4 hours, the HEK293T cells in the well plate were treated with noranhydroicaritin samples at concentrations of 2.5 μM, 5 μM, 10 μM, and 20 μM. After incubation for 24 hours, 5 μL of MTT (5 mg/mL) was added to the well plate, and the cells were further incubated for 4 hours. Thereafter, the medium was removed, 100 μL of DMSO was added to the well plate, the reaction was conducted, and then the absorbance was measured at 570 nm. As a control, cholesterol synthesis inhibitors atorvastatin (Ato) and rosuvastatin (Ros) were used. The cell viability was calculated according to the mathematical formula as a value relative to 100% of the value for the negative control treated only with DMSO. The results are illustrated in FIG. 2.

PCSK9 [1] = assay: Immunoblot of PCSK9 in HepG2 cells; assay type: cell-based, human; conditions: HepG2 cells, 5, 10, 20 μM
Procedure: In order to confirm the effect of noranhydroicaritin to inhibit PCSK9 expression and increase LDLR expression, immunoblotting targeting PCSK9 and LDLR was performed and the expression levels were compared. β-Actin was used as a control.
In a 100 mm Petri dish, 1×10^6 HepG2 cells were aliquoted and treated with noranhydroicaritin at various concentrations (5 μM, 10 μM, and 20 μM), and then the cells were removed from the cell-culture dish and homogenized using a protein extraction solution (NP40, ELPIS BIOTECH, Korea) containing a protease inhibitor cocktail (Roche).
In order to prepare the total protein, the cells were extracted in RIPA lysis buffer (50 mM Tris-HCl (pH 7.4), 150 mM NaCl, 5 mM EDTA, 5 mM EGTA, 5 mM sodium fluoride, 2 mM sodium orthovanadate, 1% NP-40, 0.1% sodium dodecyl sulfate [SDS], 1 mM phenylmethylsulfonyl fluoride [PMSF], and protein inhibitor cocktail [Roche Diagnostics, Heidelberg, Germany]). The protein concentration in the lysate was measured using the Bio-Rad dye-binding micro assay. For immunoblotting, 30 μg of cell lysate was isolated via SDS-polyacrylamide gel electrophoresis (PAGE). The proteins were transferred onto the Hybond-ECL nitrocellulose membrane (Amersham Biosciences, Buckinghamshire, UK). […] HRP-conjugated secondary antibodies were detected using an ECL detection reagent.

PPARα = PPARα expression in HepG2 cells (RealTime-PCR, immunohistochemistry); assay type: cell-based, human
Procedure: (§1) In order to confirm the effect of increasing the expression of PPARα and PPARγ of noranhydroicaritin, PCR using PPARα primers and immunohistochemistry targeting PPARα and PPARγ were performed to confirm the expression levels.
(§2) Using cDNA synthesized with RNA according to the method of Example 4, the quantities of PPARα mRNA and PPARγ mRNA were confirmed through RealTime-PCR analysis. The group treated only with DMSO was used as a negative control. For immunohistochemistry, HepG2 cells were attached to a slide chamber, then treated with noranhydroicaritin at 20 μM, and incubated. After fixation with formalin, the HepG2 cells were stained with antibodies targeting PPARα and PPARγ, and treated with DAPI to stain nuclei, and the degree of fluorescent expression was confirmed using a confocal microscope.

PPARγ = PPARγ expression in HepG2 cells (RealTime-PCR, immunohistochemistry); assay type: cell-based, human
Procedure: as §1, §2

PCSK9 [2] = assay: Immunoblot of PCSK9 in HepG2 cells, noranhydroicaritin and statin singly or in combination; assay type: cell-based, human; conditions: treated singly
Procedure: The cells aliquoted by the method of Example 7 were treated with noranhydroicaritin or a statin (atorvastatin or rosuvastatin) singly or with noranhydroicaritin and a statin (atorvastatin or rosuvastatin) simultaneously, and the proteins were extracted. On an SDS-polyacrylamide gel, 30 μg of each protein was electrophoresed, and attached to a membrane, and then protein expression levels were confirmed using the respective antibodies: phospho-AMPK, PCSK9, LDLR, and PPARγ.

IL-1B = assay: Immunofluorescence of IL-1B in carotid artery, mouse arteriosclerosis model; assay type: in vivo; conditions: 10 μg/g/day
Procedure: (§3) Carotid artery ligation was performed one week after injection of AAV-PCSK9 Virus (1×10^11 IFU/mL) and noranhydroicaritin (10 μg/g/day). After 3 weeks of ligation, it was confirmed whether the atherosclerosis model was completed, and gross plaque imaging and immunofluorescence were performed to confirm the arteriosclerosis inhibitory effect of noranhydroicaritin.
(§4) Furthermore, the arteriosclerosis inhibitory effect of noranhydroicaritin was confirmed using immunofluorescence. Specifically, a mouse carotid artery was obtained and fixed in 4% PFA for one day, and then prepared into a block. As the inflammatory response in blood vessels progresses, the arteriosclerosis worsens, and thus the marker […] of macrophages causing arteriosclerotic inflammatory response and TNF-α, IL-1B, and MCP-1, which are pro-inflammatory cytokines secreted when the inflammatory response occurs, were stained. Staining was performed using the antibody for each of CAP1(1:200), PCSK9(1:100), F4/80(1:100), TNF-α(1:100), […], and MCP-1(1:100), then imaging was performed using a confocal microscope, and […] was evaluated.

PCSK9 [3] = assay: Immunofluorescence of PCSK9 in carotid artery, mouse arteriosclerosis model; assay type: in vivo; conditions: 10 μg/g/day, compared to control
Procedure: as §3, §4

CC(C)=CCc1c(O)cc(O)c2c(=O)c(O)c(-c3ccc(O)cc3)oc12 [Noranhydroicaritin, noranhydroicaritin]
cell viability (HEK293T cells): ≥ 90%
PCSK9 expression (immunoblot) (PCSK9 [1]): decreased in a concentration-dependent manner
expression of PPARα (PPARα): increased in a concentration-dependent manner
expression of PPARγ (PPARγ): increased in a concentration-dependent manner
quantity of PCSK9 (immunoblot) (PCSK9 [2]): decreased
expression of IL-1B (immunofluorescence) (IL-1B): decreased
expression of PCSK9 (immunofluorescence) (PCSK9 [3]): significantly decreased

— patent US20220151979A1, “COMPOSITION FOR PREVENTION OR TREATMENT OF CARDIOVASCULAR AND METABOLIC DISEASE COMPRISING NORANHYDROICARITIN” (SEOUL NATIONAL UNIVERSITY HOSPITAL, priority 2019, published 2022)
